The record followed here is ChEMBL document CHEMBL1132881, “First pharmacophoric hypothesis for 5-HT7 antagonism” (Bioorg Med Chem Lett, 2000).

T2 sequence (P32305 whole entry): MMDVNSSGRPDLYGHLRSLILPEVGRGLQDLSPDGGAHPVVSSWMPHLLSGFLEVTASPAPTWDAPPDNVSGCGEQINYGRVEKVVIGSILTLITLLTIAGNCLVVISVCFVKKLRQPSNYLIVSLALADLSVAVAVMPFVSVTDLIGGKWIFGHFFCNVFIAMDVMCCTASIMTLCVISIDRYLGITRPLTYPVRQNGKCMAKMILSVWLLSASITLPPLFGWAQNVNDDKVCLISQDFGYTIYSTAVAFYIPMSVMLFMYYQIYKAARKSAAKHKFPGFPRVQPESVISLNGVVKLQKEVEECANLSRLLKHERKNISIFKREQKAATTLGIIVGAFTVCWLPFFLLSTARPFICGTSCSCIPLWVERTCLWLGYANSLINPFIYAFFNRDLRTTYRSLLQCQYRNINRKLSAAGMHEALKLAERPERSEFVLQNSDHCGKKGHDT

The target of one assay is T1, 5-hydroxytryptamine receptor 7 (Homo sapiens, UniProt P34969). Briefly: Binding affinity towards cloned human 5-hydroxytryptamine 7 receptor in HEK 293 cells. The format is cell-based, HEK293.
T1 sequence (P34969 whole entry): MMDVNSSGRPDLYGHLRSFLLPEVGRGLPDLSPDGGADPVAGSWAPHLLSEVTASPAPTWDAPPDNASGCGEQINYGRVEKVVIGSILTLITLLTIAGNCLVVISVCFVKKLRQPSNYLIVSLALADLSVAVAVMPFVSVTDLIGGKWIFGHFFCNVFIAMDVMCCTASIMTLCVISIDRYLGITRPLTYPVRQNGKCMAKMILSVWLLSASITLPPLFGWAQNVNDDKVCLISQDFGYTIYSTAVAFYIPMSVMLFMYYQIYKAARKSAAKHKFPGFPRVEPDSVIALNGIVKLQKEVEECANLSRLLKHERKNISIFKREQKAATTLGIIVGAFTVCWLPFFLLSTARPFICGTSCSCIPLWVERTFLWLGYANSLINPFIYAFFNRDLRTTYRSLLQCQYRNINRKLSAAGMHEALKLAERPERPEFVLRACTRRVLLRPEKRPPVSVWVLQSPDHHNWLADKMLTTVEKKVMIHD
For `C[C@H]1CCCN(CC[C@H](C)N(C)S(=O)(=O)c2cccc3ccccc23)C1`, the Ki is 10000 nM. Compound `O=C1Nc2cccc3c2C1(CCCCN1CCN(C2CCCCC2)CC1)CCC3` (stereo not drawn) showed a Ki of 10000 nM.

Another assay addresses T2, 5-hydroxytryptamine receptor 7 (Rattus norvegicus, UniProt P32305). Briefly: Binding affinity against 5-hydroxytryptamine 7 receptor using [3H]-5-CT in rat hypothalamus membranes. Format: cell membranes, Membrane.
For `COc1ccccc1N1CCN(CCCCCCN2c3cccc4cccc(c34)S2(=O)=O)CC1`, the inhibition constant Ki is 200 nM. On the same count and under the same terms, next, `CN1CCN(CCCCN2C(=O)c3cccc4cccc2c34)CC1`: more than 10000 nM; `CC1CCN(CCCCCN2c3cccc4cccc(c34)S2(=O)=O)CC1`: more than 10000 nM; `COc1ccccc1N1CCN(CCCCN2c3cccc4cccc(c34)S2(=O)=O)CC1`: 200 nM.

`CN1CCN(CCCCN2c3cccc4cccc(c34)S2(=O)=O)CC1` gave a Ki of more than 10000 nM. Compound `CC1CCN(CCCCN2c3cccc4cccc(c34)S2(=O)=O)CC1` showed a Ki of more than 10000 nM.

In the case of `COc1ccccc1N1CCN(CCCCCN2C(=O)c3cccc4cccc2c34)CC1`, the inhibitory constant (Ki) was 100 nM. On the same count and under the same terms, next, `CC1CCN(CCCCN2C(=O)c3cccc4cccc2c34)CC1`: more than 1000 nM; `CC(C)C1CCN(CCCCN2C(=O)c3cccc4cccc2c34)CC1`: 200 nM; `O=S1(=O)c2cccc3cccc(c23)N1CCCCCN1CCN(c2ccccc2)CC1`: 200 nM. Same read-out and setting: with `COc1ccccc1N1CCN(CCCCN2C(=O)c3cccc4cccc2c34)CC1` the figure was 63.1 nM; with `O=C1c2cccc3cccc(c23)N1CCCCCN1CCN(c2ccccc2)CC1` [UCM-5600], 79.4 nM; with `COc1ccccc1N1CCN(CCCCCN2c3cccc4cccc(c34)S2(=O)=O)CC1`, 251 nM. On the same count and under the same terms, next, `O=S1(=O)c2cccc3cccc(c23)N1CCCCN1CCCCC1`: more than 10000 nM; `O=C1c2cccc3cccc(c23)N1CCCCN1CCCCC1`: more than 10000 nM.

The next assay deals with T2, 5-hydroxytryptamine receptor 7. Briefly: Binding affinity towards 5-hydroxytryptamine 7 receptor.
`Cc1nc2sccn2c(=O)c1CCN1CCC(=C(c2ccc(F)cc2)c2ccc(F)cc2)CC1` [RITANSERIN] gave an inhibitory constant (Ki) of 15.8 nM. Same read-out and setting: with `CN1C[C@H](CNC(=O)OCc2ccccc2)C[C@@H]2c3cccc4c3c(cn4C)C[C@H]21` [METERGOLINE] the figure was 6.31 nM; with `CCN(CC)C(=O)[C@@H]1C=C2c3cccc4[nH]c(Br)c(c34)C[C@H]2N(C)C1`, 10 nM. For `Cc1cccc(S(=O)(=O)N2CCC[C@@H]2CCN2CCC(C)CC2)c1` [SB-258741], the affinity, expressed as Ki, was 3.16 nM.

A further assay concerns the target T1, 5-hydroxytryptamine receptor 7. Briefly: Binding affinity towards human recombinant 5-hydroxytryptamine 7 receptor using [3H]5-CT as radioligand.
`COc1ccccc1N1CCN(CCCCC23CCCc4cccc(c42)NC3=O)CC1` (stereo not drawn): the inhibition constant Ki was 5.01 nM. Same read-out and setting: with `O=C1Nc2cccc3c2C1(CCN1CCN(c2ccccc2)CC1)CCC3` (stereo not drawn) the figure was 100 nM; with `N#Cc1ccccc1N1CCN(CCCCC23CCCc4cccc(c42)NC3=O)CC1` (stereo not drawn), 3.98 nM. Consider `O=C1Nc2cccc3c2C1(CCCCN1CCN(c2ccccc2)CC1)CCC3` (stereo not drawn), for which the Ki was 3.16 nM. Still for that read-out and setting: next, `O=C1Nc2cccc3c2C1(CCCCN1CCN(c2ccccn2)CC1)CCC3` (stereo not drawn): 2 nM; `O=C1Nc2cccc3c2C1(CCCCN1CCC(c2ccccc2)CC1)CCC3` (stereo not drawn): 2 nM; `O=C1Nc2cccc3c2C1(CCCN1CCN(c2ccccc2)CC1)CCC3` (stereo not drawn): 5.01 nM.
